In brackets after ≈: the same amount, converted by molar mass. Like-named read-outs stand apart in the source and are kept apart here.
Legend:
[1] = tested on: Streptococcus agalactiae; assay: in vitro bacteriostatic activity, agar dilution MIC; format: cell-based; details: Streptococcus agalactiae 12-1
[2] = tested on: Streptococcus uberis; assay: as above; format: cell-based; details: Streptococcus uberis 12-1
[3] = tested on: Staphylococcus saprophyticus; assay: as above; format: cell-based
[4] = tested on: Staphylococcus auricularis; assay: as above; format: cell-based
[5] = tested on: Chryseobacterium indologenes; assay: as above; format: cell-based
[6] = tested on: Acinetobacter lwoffii; assay: as above; format: cell-based
[7] = tested on: Escherichia coli E^+; assay: as above; format: cell-based
Method: (§1) Preparation of drug-containing flat plates: patchoulol was diluted by coubling double dilution in DMSO, and 1 ml and 14 ml of sterile MH culture media in different gradient concentrations were respectively added to the disposable sterile petri dishes. Tested drugs were respectively diluted to different gradient concentrations from 768 to 0.006 µg/ml, fully mixed, and dried to reserve. As mentioned above, replacing tested drug with same amount of normal saline was used to prepare positive control plates.
(§2) Preparation of bacterial liquid: Tested strains and drug-sensitive strains used for quality control were diluted with stroke-physiological saline solution to the concentration of 10^6 CFU/ml.
(§3) Bacteriostatic activity assay […]: using multipoint inoculation instrument, the tested strain liquid was added to the drug-containing flat plates with different gradient concentrations and positive control plates respectively, and replacing the bacterial liquid with 5 µL normal saline, served as the negative control.
(§4) Staphylococcus aureus and Staphylococcus epidermidis were cultured at 35-37°C for 18-24 h in MH media (containing 2% NaCl); Streptococcus pneumonia was cultured in brain heart infusion agar media (containing 5% goat blood) within an incubator under 5% CO2 at 35°C for 24 hours; Gram-negative bacteria and other strains were placed in an incubator at 35-37°C and cultured for 18-20 h; Results were observed and recorded.
(§5) Result assessment: The minimum concentration of drug in no bacterial growth plates was regarded as the minimum inhibitory concentration (MIC) of the drug to the stain.

[8] = tested on: Shiglla flexneri; assay: as above; format: cell-based
Method: as §1, §2, §3, §4, §5

[9] = tested on: Staphylococcus aureus MSSA; assay: as above; format: cell-based; details: Staphylococcus aureus, MSSA, read-out: MIC
[10] = tested on: Staphylococcus aureus MRSA; assay: as above; format: cell-based
[11] = tested on: Staphylococcus epidermidis MRSE; assay: as above; format: cell-based
[12] = tested on: Klebsiella pneumonia E^-; assay: as above; format: cell-based
[13] = tested on: Staphylococcus epidermidis ATCC 12228; assay: in vitro bacteriostatic activity, agar dilution MIC, quality control strain; format: cell-based; details: ATCC12228; Staphylococcus epidermidis ATCC 12228; read-out: MIC
[14] = tested on: influenza virus A/PR/8/34 (H1N1); details: in vitro; cited from earlier work
[15] = tested on: influenza virus type A (H2N2); details: in vitro; cited from earlier work
[16] = tested on: xylene-induced ear edema; details: mice, dose-dependent; cited from earlier work
[17] = tested on: humoral immunity and mononuclear phagocyte functions; details: intragastric 40 and 80 mg/(kg·d) for successive 7 days; cited from earlier work
[18] = tested on: neurotoxicity of Aβ25∼35; details: in vitro, 0.05, 0.5, 5 µg/ml; cited from earlier work
[19] = mouse, in vivo, po; cited from earlier work
[20] = tested on: methicillin-resistant Staphylococcus aureus ATCC 43300; assay: prevention of bacterial infection, colony count on patchoulol-coated tubes; details: cultured 7 days at 37°C
[21] = tested on: Staphylococcus aureus ATCC 25923; assay: as above; details: cultured 7 days at 37°C
[22] = 400, 200, 100 and 50 µg/ml, compared with 0 µg/ml
[23] = patchoulol on intraductal membranes more than or equal to 600 µg/ml

For `C[C@H]1CC[C@@]2(O)C(C)(C)[C@@H]3CC[C@@]2(C)[C@H]1C3` (stereo in doubt) [PC, (1R,4S,4aS,6R,8aS)-octahydro-4,8a,9,9-tetramethyl-1,6-methanonaphthalen-1(2H)-ol], the MIC [1] was 50 µg/mL (≈ 225 µM), the MIC [2] was 25 µg/mL (≈ 112 µM) and the MIC ([3]; Staphylococcus saprophyticus 12-2) was 100 µg/mL (≈ 450 µM). It also gave an MIC ([3]; Staphylococcus saprophyticus12-3) of 100 µg/mL (≈ 450 µM), an MIC ([3]; Staphylococcus saprophyticus, Staphylococcus saprophyticus12-1, read-out: MIC) of 100 µg/mL (≈ 450 µM) and an MIC ([4]; Staphylococcus auricularis (first line, r19)) of 25 µg/mL (≈ 112 µM). It also gave an MIC ([4]; Staphylococcus auricularis (second line, r20)) of 50 µg/mL (≈ 225 µM), an MIC ([5]; Chryseobacterium indologenes12- (first line, r25)) of 25 µg/mL (≈ 112 µM) and an MIC ([5]; Chryseobacterium indologenes12- (second line, r26)) of 100 µg/mL (≈ 450 µM). The MIC ([6]; Acinetobacter lwoffii 12-1, read-out: MIC) was 50 µg/mL (≈ 225 µM), the MIC ([6]; Acinetobacter lwoffii 12-2) was 50 µg/mL (≈ 225 µM) and the MIC ([7]; Escherichia coli E^+ 10-7) was > 768 µg/mL. For the same compound, the MIC ([7]; Escherichia coli E^+ 10-9) was > 768 µg/mL, the MIC ([8]; Shiglla flexneri 12-1) was 400 µg/mL (≈ 1800 µM) and the MIC ([8]; Shiglla flexneri 12-2, read-out: MIC) was 50 µg/mL (≈ 225 µM). It also gave an MIC ([9]; Staphylococcus aureus MSSA 10-38) of 1.5 µg/mL (≈ 6.75 µM), an MIC ([9]; Staphylococcus aureus MSSA 10-40) of 1.5 µg/mL (≈ 6.75 µM) and an MIC ([9]; Staphylococcus aureus MSSA 10-41) of 1.5 µg/mL (≈ 6.75 µM). For the same compound, the MIC ([9]; Staphylococcus aureus MSSA 12-11) was 128 µg/mL (≈ 576 µM), the MIC ([9]; Staphylococcus aureus MSSA 12-13) was 128 µg/mL (≈ 576 µM) and the MIC ([9]; Staphylococcus aureus MSSA 12-14) was 64 µg/mL (≈ 288 µM). It also gave an MIC ([9]; Staphylococcus aureus MSSA 12-15) of 128 µg/mL (≈ 576 µM), an MIC ([9]; Staphylococcus aureus MSSA 12-16) of 64 µg/mL (≈ 288 µM) and an MIC ([9]; Staphylococcus aureus MSSA 12-17) of 64 µg/mL (≈ 288 µM). It also gave an MIC ([9]; Staphylococcus aureus MSSA 12-18) of 128 µg/mL (≈ 576 µM), an MIC ([9]; Staphylococcus aureus MSSA 12-19) of 128 µg/mL (≈ 576 µM) and an MIC ([9]; Staphylococcus aureus MSSA 12-20) of 64 µg/mL (≈ 288 µM). The MIC ([9]; Staphylococcus aureus MSSA 12-21) was 64 µg/mL (≈ 288 µM), the MIC ([10]; ATCC 43300 / MRSA, Methicillin-resistant Staphylococcus aureus ATCC 43300, read-out: MIC) was 128 µg/mL (≈ 576 µM) and the MIC ([10]; MRSA, Staphylococcus aureus MRSA 10-31, read-out: MIC) was 1.5 µg/mL (≈ 6.75 µM). For the same compound, the MIC ([10]; MRSA, Staphylococcus aureus MRSA 10-32, read-out: MIC) was 1.5 µg/mL (≈ 6.75 µM), the MIC ([10]; MRSA, Staphylococcus aureus MRSA 12-11, read-out: MIC) was 128 µg/mL (≈ 576 µM) and the MIC ([10]; MRSA, Staphylococcus aureus MRSA 12-12, read-out: MIC) was 128 µg/mL (≈ 576 µM). For the same compound, the MIC ([10]; MRSA, Staphylococcus aureus MRSA 12-13, read-out: MIC) was 64 µg/mL (≈ 288 µM), the MIC ([10]; MRSA, Staphylococcus aureus MRSA 12-14, read-out: MIC) was 64 µg/mL (≈ 288 µM) and the MIC ([10]; MRSA, Staphylococcus aureus MRSA 12-15, read-out: MIC) was 64 µg/mL (≈ 288 µM). The MIC ([10]; MRSA, Staphylococcus aureus MRSA 12-16, read-out: MIC) was 64 µg/mL (≈ 288 µM), the MIC ([10]; MRSA, Staphylococcus aureus MRSA 12-17, read-out: MIC) was 128 µg/mL (≈ 576 µM) and the MIC ([10]; MRSA, Staphylococcus aureus MRSA 12-18, read-out: MIC) was 128 µg/mL (≈ 576 µM). It also gave an MIC ([10]; MRSA, Staphylococcus aureus MRSA 12-19, read-out: MIC) of 64 µg/mL (≈ 288 µM), an MIC ([10]; MRSA, Staphylococcus aureus MRSA 12-20, read-out: MIC) of 128 µg/mL (≈ 576 µM) and an MIC ([11]; Staphylococcus epidermidis MRSE 10-40, read-out: MIC) of 1.5 µg/mL (≈ 6.75 µM). For the same compound, the MIC ([11]; Staphylococcus epidermidis MRSE 10-44, read-out: MIC) was 1.5 µg/mL (≈ 6.75 µM), the MIC ([11]; Staphylococcus epidermidis MRSE 12-11, read-out: MIC) was 128 µg/mL (≈ 576 µM) and the MIC ([11]; Staphylococcus epidermidis MRSE 12-12, read-out: MIC) was 32 µg/mL (≈ 144 µM). For the same compound, the MIC ([11]; Staphylococcus epidermidis MRSE 12-15, read-out: MIC) was 32 µg/mL (≈ 144 µM), the MIC ([11]; Staphylococcus epidermidis MRSE 12-16, read-out: MIC) was 32 µg/mL (≈ 144 µM) and the MIC ([11]; Staphylococcus epidermidis MRSE 12-17, read-out: MIC) was 32 µg/mL (≈ 144 µM). The MIC ([11]; Staphylococcus epidermidis MRSE 12-18, read-out: MIC) was 32 µg/mL (≈ 144 µM), the MIC ([11]; Staphylococcus epidermidis MRSE 12-19, read-out: MIC) was 32 µg/mL (≈ 144 µM) and the MIC ([11]; Staphylococcus epidermidis MRSE 12-20, read-out: MIC) was 128 µg/mL (≈ 576 µM). The MIC ([11]; Staphylococcus epidermidis MRSE 12-21, read-out: MIC) was 128 µg/mL (≈ 576 µM), the MIC ([11]; Staphylococcus epidermidis MRSE 12-22, read-out: MIC) was 32 µg/mL (≈ 144 µM) and the MIC ([12]; Klebsiella pneumonia E^- 10-18) was >768 µg/mL. For the same compound, the MIC ([12]; Klebsiella pneumoniae, Klebsiella pneumonia E^- 10-16, read-out: MIC) was > 768 µg/mL, the MIC [13] was 64 µg/mL (≈ 288 µM) and the IC50 [14] was ~2640 nM. The IC50 [15] was 4.03 ± 0.23 µM, the xylene-induced ear edema [16] was “effectively inhibit” and the “thymus gland index, spleen index, sanguinin content, and clearance index” value [17] was “effectively improve”. For the same compound, the “increase of intra-cellular ROS level and [Ca^2+]I induced by Aβ25~35” value [18] was “inhibit the increase”, the maximum tolerated dose [19] was “less than 12.5 g/kg” and the bacterial colony numbers [20, 22] was “decrease”. For the same compound, the bacterial colony numbers [20, 23] was 0, the bacterial colony numbers [21, 22] was “decrease” and the bacterial colony numbers [21, 23] was 0.
